Source: PubChem BioAssay AID504713 (Southern Research Specialized Biocontainment Screening …, 2011)
Active and inactive are the calls of the source. The rule behind the calls is not given here.

Tested on: mammalian cell cytotoxicity, viability, CC50
Test: mammalian cell cytotoxicity, cytotoxicity control, set 3 (AID 504713)
Conditions: not given
For CCOc1ccc2nc(NC(=O)C3(c4ccccc4)CCCC3)sc2c1, the CC50 was 87.6 µM. Compound CCOc1ccc2c(c1)c(C(C)=O)c(C)n2-c1ccccc1C has a CC50 of 90.1 µM. COc1ccc2nc(NC(=O)COc3ccc(C)cc3)sc2c1 showed a CC50 of 87.4 µM. c1ccc(-c2cc(N3CCOCC3)nc3ccccc23)cc1 showed a CC50 of 90.8 µM. CC(Oc1ccc(Cl)cc1)C(=O)Nc1nc2ccccc2s1 (stereo not given) showed a CC50 of 92 µM. With Cc1ccc2sc(NC(=O)COc3ccccc3)nc2c1C the CC50 was 36.6 µM. CCOc1ccc2c(c1)c(C(C)=O)c(C)n2-c1ccccc1Cl gave a CC50 of 85.7 µM. For O=C(Nc1ccccc1)Nc1csc2ccccc12, the CC50 was 76.6 µM. O=C(Nc1nc2ccccc2[nH]1)c1cc2cc(Br)ccc2o1 showed a CC50 of 41.7 µM. N/C(=N\c1nc2ccccc2o1)NC(=O)c1ccccc1 showed a CC50 of 19.3 µM. Compound COc1ccc(Cl)cc1C(=O)Nc1nc2ccccc2[nH]1 has a CC50 of 60.5 µM. For N/C(=N\c1nc2cc(Cl)ccc2o1)NC(=O)c1ccccc1, the CC50 was 43.2 µM. With Cc1ccc2oc(/N=C(\N)NC(=O)c3ccccc3)nc2c1 the CC50 was 35.1 µM. Compound N/C(=N\c1nc2ccccc2o1)NC(=O)c1ccc(F)cc1 has a CC50 of 57.3 µM.

Tested on: not listed separately
Test: as above
Conditions: mammalian cell cytotoxicity, viability, CC50; at 100 µM (top of the series)
In the case of CC(=O)Nc1ccc2nc(NC(=O)Cc3ccccc3)sc2c1, the viability is reported as 95.1% (inactive). For Cc1ccccc1OCC(=O)Nc1noc(-c2ccccc2)n1, the viability was 100% (inactive). With CC(=O)c1c(C)n(-c2ccccc2)c2ccc(O)cc12 the viability was 85% (inactive). For Cc1ccc(OCC(=O)Nc2nc3c(Cl)cccc3s2)cc1, the viability was 108% (inactive). For CCCN1CC(O)=C(c2nc3ccccc3s2)C1=N, the viability was 88.5% (inactive). With O=C(COc1ccc2c3c(c(=O)oc2c1)CCC3)Nc1nc2ccccc2[nH]1 the viability was 97% (inactive). For Cc1ccc(OC(C)C(=O)Nc2ncccn2)c(C)c1 (stereo not given), the viability was 96.2% (inactive). For CCc1ccc2nc(/N=C(\N)NC(=O)c3ccccc3)nc(C)c2c1, the viability was 94.8% (inactive). For Cc1cc2cc(F)ccc2n1-c1ccccc1, the viability was 93.3% (inactive). With COC(=O)c1c(C)[nH]c2ccccc12 the viability was 82.6% (inactive). For COc1ccc(C(=O)Nc2ccc3nc(N4CCCCC4)cc(C)c3c2)c(OC)c1, the viability was 96.5% (inactive). For CC(=O)c1c(C)n(-c2ccc(C)cc2)c2ccc(O)cc12, the viability was 94.9% (inactive). For COc1ccc2nc(NC(=O)COc3ccccc3C(C)C)sc2c1, the viability was 89.6% (inactive). In the case of COc1ccc2nc(NC(=O)COc3ccc(Cl)cc3)sc2c1, the viability is reported as 95.2% (inactive). In the case of Cc1cc2cc(O)ccc2[nH]1, the viability is reported as 103% (inactive). In the case of O=C(COC(=O)C1=COCCO1)Nc1ccc2c(c1)OCO2, the viability is reported as 94.5% (inactive). In the case of COC(=O)c1ccc2nc(NC(=O)COc3ccccc3)sc2c1, the viability is reported as 99.9% (inactive). With CCOc1ccc2nc(NC(=O)COc3ccc(Cl)c(C)c3)sc2c1 the viability was 112% (inactive). In the case of Cc1ccccc1OCC(=O)Nc1ncn[nH]1, the viability is reported as 95.4% (inactive). With S=C(Nc1ccccc1)Nc1ccc(Cl)cn1 the viability was 107% (inactive). With Cc1cc2cc(F)ccc2[nH]1 the viability was 102% (inactive). For CC(=O)c1c(C)n(-c2ccccc2)c2ccccc12, the viability was 98.2% (inactive). In the case of N/C(=N\c1nc2ccccc2o1)NC(=O)C1CC1, the viability is reported as 83% (inactive). For Cc1ccccc1OCC(=O)Nc1nnn(C)n1, the viability was 95.7% (inactive). With Cc1cccnc1NC(=S)NC(=O)c1cncc(Br)c1 the viability was 108% (inactive). In the case of O=C(COc1ccccc1)Nc1nc2ccccc2s1, the viability is reported as 104% (inactive). In the case of COC(=O)c1c(C)[nH]c2ccc(Cl)cc12, the viability is reported as 80% (inactive). In the case of Cc1ccc(OCC(=O)Nc2ccc3c4c(cccc24)CC3)c(C)c1, the viability is reported as 80.3% (inactive). With CC(=O)c1c(C)n(-c2cccc(Cl)c2)c2ccc(O)cc12 the viability was 89% (inactive). For CCOc1ccc2[nH]cc(C(=O)OC)c2c1, the viability was 86.9% (inactive). For CCCOc1ccc2c(c1)c(C(C)=O)c(C)n2-c1ccccc1, the viability was 97.2% (inactive). For COc1ccc2nc(NC(=O)c3oc4ccccc4c3C)sc2c1, the viability was 94.4% (inactive). In the case of CC(C)Cn1c2c(c(O)c(C(=O)Nc3nccs3)c1=O)CCCC2, the viability is reported as 100% (inactive). With O=C(COc1ccccc1Cl)Nc1nc2ccccc2s1 the viability was 92.2% (inactive). In the case of COc1ccc2c(c1)cc(C)n2-c1ccccc1, the viability is reported as 92.9% (inactive). With Cc1ccc(OCC(=O)Nc2cccc3ncccc23)c(C)c1 the viability was 92.8% (inactive). With O=C(COc1cccc2ccccc12)Nc1nc2ccccc2s1 the viability was 82.9% (inactive). In the case of CCOC(=O)c1c(C)[nH]c2ccccc12, the viability is reported as 85.7% (inactive). With COc1ccc2c(c1)c(C(C)=O)c(C)n2-c1ccccc1 the viability was 96.1% (inactive). For c1ccc(Nc2ncnc3c2oc2ccccc23)cc1, the viability was 88% (inactive). With O=C(O)CCC(=O)Nc1nc2ccccc2s1 the viability was 102% (inactive). In the case of CC(=O)c1c(C)n(-c2ccccc2)c2ccc(OS(=O)(=O)C(F)(F)F)cc12, the viability is reported as 92.2% (inactive). For O=C(Nc1nc2ccccc2[nH]1)c1ccc(Cl)c(Cl)c1, the viability was 90.6% (inactive). For CCOc1ccc2nc(NC(=O)COc3ccccc3)sc2c1, the viability was 86% (inactive). With COc1cccc(-c2ccc(-c3noc(-c4ccccc4F)n3)c(OC)n2)c1 the viability was 91.7% (inactive). In the case of Cc1onc(-c2c(Cl)cccc2Cl)c1/C(N)=N/OC(=O)C1CC1, the viability is reported as 107% (inactive). With Oc1ccc2[nH]ccc2c1 the viability was 106% (inactive). For Cc1cc2ccccc2n1-c1ccccc1, the viability was 93.4% (inactive). In the case of Cc1ccc(OCC(=O)Nc2nc3ccc(F)cc3s2)cc1, the viability is reported as 103% (inactive). In the case of COc1ccc2[nH]c(C)cc2c1, the viability is reported as 103% (inactive). In the case of COc1ccc2nc(NC(=O)COc3ccccc3)sc2c1, the viability is reported as 109% (inactive). In the case of COc1cccc(NC(=S)Nc2cc(C)cc(C)n2)c1, the viability is reported as 100% (inactive). With CCOc1ccc(NC(=O)COc2ccc(C)cc2C)cc1 the viability was 97.5% (inactive). For CCOc1ccc2nc(NC(=O)COc3ccc(OC)cc3)sc2c1, the viability was 102% (inactive). For CCOc1ccc2[nH]ccc2c1, the viability was 97.9% (inactive). In the case of N/C(=N\c1nc2ccccc2o1)NC(=O)c1ccccc1Br, the viability is reported as 87% (inactive). With COc1cccc(NC(=O)C2CC2)c1 the viability was 90.2% (inactive). With Cc1ccc(C(C)C)c(OCC(=O)Nc2nc3ccccc3s2)c1 the viability was 92% (inactive). For Cc1ccc(OCC(=O)Nc2ccc(Cl)cc2)c(C)c1, the viability was 97.9% (inactive). In the case of CCOc1ccc2nc(NC(=O)COc3ccc(F)cc3)sc2c1, the viability is reported as 103% (inactive). With CC(C)(C)c1ccc(OCC(=O)Nc2nc3ccccc3s2)cc1 the viability was 98.8% (inactive). For Cc1ccc(OCC(=O)Nc2cccc3ccccc23)c(C)c1, the viability was 93.3% (inactive). In the case of CCOc1ccc2c(c1)c(C(C)=O)c(C)n2Cc1ccco1, the viability is reported as 97.1% (inactive). With c1ccc(OCc2nnc(-c3ccccc3)o2)cc1 the viability was 95.4% (inactive). With Cc1cc(C)c(OCC(=O)Nc2nc3ccccc3s2)c(Cl)c1 the viability was 98.1% (inactive). In the case of Cc1cc(C)c(OCC(=O)Nc2nc3ccccc3[nH]2)c(C)c1, the viability is reported as 88.5% (inactive). In the case of CC(=O)c1c(C)n(-c2ccccc2C)c2ccc(O)cc12, the viability is reported as 95.5% (inactive). In the case of CCOC(=O)c1cnc2cc(-c3ccc(C(C)(C)C)cc3)nn2c1N, the viability is reported as 94.4% (inactive). With CCOc1ccc2[nH]c(C)cc2c1 the viability was 93% (inactive). In the case of N/C(=N\c1nc2ccccc2o1)NC(=O)c1ccccc1F, the viability is reported as 99.9% (inactive). For O=C(COC(=O)C1CC1)c1c[nH]c2ccccc12, the viability was 98.9% (inactive). In the case of O=C(Cc1csc(-c2ccccc2F)n1)Nc1nc2ccccc2[nH]1, the viability is reported as 105% (inactive). For O=C(OC(C(=O)Nc1ccc(Cl)cc1C(F)(F)F)c1ccccc1)C1=COCCO1 (stereo not given), the viability was 84.8% (inactive). With Cc1ccccc1OCC(=O)Nc1ncccn1 the viability was 106% (inactive). For CCOc1ccc2nc(NC(=O)Cc3ccc(OC)cc3)sc2c1, the viability was 100% (inactive). For Cc1cc(C)c(OCC(=O)Nc2nc3ccc(C)cc3s2)c(C)c1, the viability was 97.6% (inactive). For O=C(CSc1n[nH]c(=O)n1C1CC1)c1ccc2c(c1)OCCO2, the viability was 104% (inactive). For O=C(Cc1ccccc1Cl)Nc1nc2ccccc2[nH]1, the viability was 100% (inactive). With O=C(COc1ccc(Cl)cc1)Nc1nc2ccc(F)cc2s1 the viability was 96.1% (inactive). With CCOc1ccc2nc(NC(=O)c3cnccn3)sc2c1 the viability was 80.3% (inactive). With CCOc1ccc2c(c1)cc(C)n2-c1ccccc1 the viability was 95.5% (inactive). With CCOC(=O)COc1nc(-c2ccc(Cl)cc2)cc(-c2ccco2)c1C#N the viability was 103% (inactive). For COc1ccc2nc(NC(=O)COc3c(C)cc(C)cc3C)sc2c1, the viability was 94.5% (inactive). In the case of Cc1ccc(OCC(=O)Nc2nnn(C)n2)c(C)c1, the viability is reported as 103% (inactive). In the case of CCC(CC)c1nnc(NC(=O)c2ccc(N3CCCCC3)c([N+](=O)[O-])c2)s1, the viability is reported as 96.7% (inactive). For Cc1cccc(C)c1OCC(=O)Nc1nc2ccccc2s1, the viability was 93.4% (inactive). In the case of O=C(CC12CC3CC(CC(C3)C1)C2)NCc1ccc(F)cc1, the viability is reported as 99.1% (inactive). For CN(NC(=O)c1c(Cl)cccc1Cl)c1cccc(Cl)n1, the viability was 93.6% (inactive). With Cc1ccc(OCC(=O)Nc2cccc3c(NC(=O)COc4ccc(C)cc4C)cccc23)c(C)c1 the viability was 100% (inactive). With CC(=O)Nc1ccc2nc(NC(=O)COc3ccccc3)sc2c1 the viability was 96.2% (inactive). In the case of CCOc1ccc2c(ccn2-c2ccccc2)c1, the viability is reported as 99.9% (inactive).
